Results: patent publication EP0158545A1, “[Alpha-(alkylaminomethyl)-benzylthio]-acetic-acid derivatives, process for their preparation and their therapeutic use” (priority 1984, dated 1985)
Entries after “also recorded” stand apart in the source; their conditions may differ.

Tests used:
chiens [1] = test: Cardiovascular tests in dogs, intraduodenal successive doses; type: in vivo, chien
Protocol: a) Quatre chiens (poids moyen : 13,8 kg) anesthésiés au nembutal reçoivent le CRL 41 250 par voie intraduodénale, aux doses successives de 0,1 mg/kg, 0,5 mg/kg, 1 mg/kg, 2,5 mg/kg, 5 mg/kg puis 10 mg/kg. On mesure la pression artérielle, la fréquence cardiaque, le débit artériel fémoral, le débit artériel vertébral, la température rectale et on observe la coloration de la peau.
a) Deux chiens (poids moyen : 14,5 kg) reçoivent le CRL 41 252 par voie intraduodénale, aux doses successives de 0,1 mg/kg, 0,5 mg/kg, 1 mg/kg, 2,5 mg/kg, 5 mg/kg, 10 mg/kg et 20 mg/kg. On mesure la pression artérielle, la fréquence cardiaque, le débit artériel fémoral, le débit artériel vertébral, les températures rectale et cutanée et on observe la coloration de la peau.

chiens [2] = test: Influence on isoprenaline effects, dog; type: in vivo; details: chien, after dose cumulée 19,1 mg/kg I.D.
Source text: (§1) b) Sur les mêmes chiens on a étudié l'influence du produit vis à vis de l'isoprénaline et de la noradrénaline.
Avec 10,pg/kg I.V. d'isoprénaline la pression artérielle diastolique du CRL 41 252 passe de 128 à […] ([…] à 6,4 x 10^3 Pa), […]

chiens [3] = test: Influence on noradrenaline hypertension, dog; type: in vivo; details: chien
Protocol: as §1
L'hyptertension à la noradrénaline (2 µg/kg I.V.) est augmentée par le CRL 41 252 ([…]), la pression artérielle systolique passe de 208 à 352 mmHg (soit environ de 2,77 x 10^4 à 4,7 x 10^4Pa) au lieu de 204 à 328 mmHg (soit environ de 2,71 à 4,3 x 10 Pa).

[4] = tested on: système nerveux central (SNC); test: General statement of CNS (antidepressant, sedative) properties; type: in vivo
chiens [5] = test: Influence on isoprenaline effects, dog; type: in vivo; details: chien, isoprénaline 10 µg/kg I.V., dose cumulée de 19,1 mg/kg I.D.
souris mâle = details: in vivo
Protocol: (§2) On a résumé ci-après les résultats des essais neuropsychopharmacologiques qui ont été entrepris avec les produits préférés selon l'invention, le CRL 41 190 (Ex 1) et le CRL 41 214 (Ex 3). Dans ce résumé, les deux produits à tester mis en solution dans de l'eau distillée ont été administrés, sauf indiction contraire, par voie intrapéritonéale sous un volume de 20 ml/kg chez la souris mâle et sous un volume de 5 ml/kg chez le rat mâle. […]
La DL-0 (dose maximale non mortelle) du CRL 41 190 est supérieure à 128 mg/kg par voie I.P. chez la souris mâle, et la DL-30 est de l'ordre de 256 mg/kg.
Par voie I.P. chez la souris mâle, la DL-0 est supérieure à 256 mg/kg.

souris [6] = test: Global behaviour and reactivities, mouse; type: in vivo; details: I.P.
Protocol: as §2
(§3) Des lots de trois animaux sont observés avant puis 0,25 h, 0,5, h, 1 h, 2 h, 3 h et 24 h après administration de CRL 41 190.

rat [7] = test: Global behaviour and reactivities, rat; type: in vivo; details: I.P.
Protocol: as §2, §3

souris [8] = test: Interaction with apomorphine, mouse; type: in vivo
Protocol: • 1°) chez la souris • Des lots de 6 souris reçoivent le produit à étudier 0,50 h avant une injection sous-cutanée de 1 mg/kg ou 16 mg/kg d'apomorphine.

rat [9] = test: Interaction with apomorphine, rat; type: in vivo; details: product I.P. 0,50 h before s.c. 0,5 mg/kg apomorphine
rats = test: Interaction with amphetamine (stereotypies), rat; type: in vivo; details: amphétamine 2 mg/kg I.P., doses de 4 mg/kg, 16 mg/kg et surtout 64 mg/kg
Protocol: L'amphétamine (2 mg/kg) est injectée par voie intrapéritonéale à des lots de 6 rats, une demi -heure après l'administration de CRL 41 190.

souris [10] = test: Interaction with reserpine (hypothermia, ptosis), mouse; type: in vivo; details: réserpine 2,5 mg/kg I.P.
Protocol: Quatre heures après l'injection intrapéritonéale de 2,5 mg/kg de réserpine, des lots de 12 souris reçoivent le CRL 41 190. On étudie l'influence du produit à tester sur l'hypothermie et le ptôsis réserpiniques.

souris [11] = test: Interaction with oxotremorine, mouse; type: in vivo; details: oxotrémorine 0,5 mg/kg I.P.
souris [12] = test: Four-plate test, traction and electroshock, mouse; type: in vivo
Protocol: Le test est pratiqué sur des lots de 10 souris 0,50 h après l'administration du produit à étudier.

souris [13] = test: Spontaneous motility (actimeter), mouse; type: in vivo; details: souris, I.P.; plus forte dose utilisée (128 mg/gk)
souris [14] = test: Intergroup aggressiveness, mouse; type: in vivo; details: I.P., aux doses utilisées
Protocol: Après avoir séjourné pendant 3 semaines dans chacune des moitiés d'une cage séparées par une cloison opaque, des groupes de 3 souris reçoivent le CRL 41 190. Une demi-heure plus tard, les deux groupes d'une même cage sont réunis par retrait de la cloison et on note le nombre de combats qui surviennent en 10 minutes.

souris [15] = test: Motility reduced by habituation to the enclosure, mouse; type: in vivo; details: I.P., plus forte dose utilisée (128 mg/kg)
souris [16] = test: Asphyxic anoxia (gallamine triethiodide), mouse; type: in vivo; details: product I.P. half an hour before triiodoéthylate de gallamine 32 mg/kg I.P.
souris [17] = test: Interaction with barbital (sleep duration), mouse; type: in vivo; details: barbital 220 mg/kg I.P., plus forte dose utilisée (128 mg/kg)
souris [18] = test: Behavioural despair (forced immersion), mouse; type: in vivo; details: I.P., doses de 32 et 128 mg/kg
Source text: On note la durée totale d'immobilité entre la 2ème et la 6ème minutes suivant l'immersion.

l'homme = test: Clinical treatment of depression, oral administration; type: in vivo
souris [19] = details: I.P., plus forte dose utilisée (128 mg/kg)
[20] = dès la dose de 8 mg/kg, mais surtout aux doses de 32 mg/kg et 128 mg/kg
[21] = souris, 0,50 h after I.P. administration

CC(SC(CNC(C)(C)C)c1ccccc1)C(N)=O (stereo not drawn) [CRL 41 250, fumaratede 2-{[α-(tertiobutylaminomethyl)-benzyl]-thio}-propionamide]
débit fémoral (chiens [1]; chien anesthésié (nembutal), dose de 19,1 mg/kg I.D.): augmente le débit fémoral
fréquence cardiaque (chiens [1]; chien anesthésié, dose de 1 mg/kg I.D.): provoque une légère bradycardie
pression artérielle (chiens [1]; chien anesthésié, successive I.D. doses 0,1 to 10 mg/kg): aucun effet sur la pression artérielle
effets vasodilatateurs (propriétés cardiovasculaires) (chiens [1]; general statement): effets vasodilatateurs intéressants; also recorded: effets vasodilatateurs bénéfiques
pression artérielle diastolique, before isoprénaline (chiens [2]; control 151): 148 mmHg
fréquence cardiaque, before isoprénaline (chiens [2]; control 180): 175 battements/minute
pression artérielle diastolique, after isoprénaline (chiens [2]; isoprénaline 10 µg/kg I.V., control 43): 47 mmHg
fréquence cardiaque, after isoprénaline (chiens [2]; isoprénaline 10 µg/kg I.V., control 271): 265 battements/minute
pression artérielle systolique, before noradrénaline (chiens [3]; after dose cumulée 19,1 mg/kg I.D., control 204): 191 mmHg
pression artérielle systolique, after noradrénaline (chiens [3]; noradrénaline 2 µg/kg I.V., after dose cumulée 19,1 mg/kg I.D., control 304): 330 mmHg
hypertension à la noradrénaline (chiens [3]; noradrénaline 2 µg/kg I.V., dose cumulée de 19,1 mg/kg I.D.): légèrement augmentée
propriétés antidépressives et sédatives [4]: propriétés antidépressives et sédatives
effect on isoprénaline response (pression artérielle diastolique, fréquence cardiaque) (chiens [5]): ne modifie pas la pression artérielle diastolique ni la fréquence cardiaque

CC(C)(C)NCC(SCC(=O)NO)c1ccccc1 (racemic) [CRL 41 214, chlorhydratede l'acide [α-(tertiobutyl-aminométhyl)-benzyl]-thioacétohydroxamique]
signs observed at high doses (souris mâle): une sédation et une dyspnée
DL-0 (dose maximale non mortelle) (souris mâle; mouse, ip): > 256 mg/kg
comportement global et réactivités (souris [6]; dose de 128 mg/kg): une mydriase modérée
comportement global et réactivités (souris [6]; doses de 2 à 32 mg/kg): aucune modification nette du comportement et des réactivités
comportement global et réactivités (rat [7]; dose de 16 mg/kg): une mydriase d'une durée de 2 h qui est maximale 0,5 h après administration
comportement global et réactivités (rat [7]; dose de 64 mg/kg): une diminution de la fréquence respiratoire pendant 0,5 h et une mydriase d'une durée de 3 h qui est maximale 1 h après administration
comportement global et réactivités (rat [7]; doses de 1 et 4 mg/kg): aucune modification nette du comportement, des réactivités, de la température rectale et du diamètre pupillaire par rapport au lot témoin
hypothermie induite par l'apomorphine (souris [8]; I.P., dès la dose de 2 mg/kg, mais surtout aux doses de 32 mg/kg à 128 mg/kg): antagonise l'hypothermie induite par l'apomorphine
comportements de verticalisation et stéréotypies (apomorphine) (souris [8]; product I.P. 0,50 h before s.c. apomorphine): ne sont pratiquement pas modifiés
stéréotypies induites par l'apomorphine (rat [9]): laisse inchangées les stéréotypies induites par l'apomorphine
stéréotypies amphétaminiques (rats): potentialise nettement les stéréotypies amphétaminiques
ptôsis réserpinique (souris [10]; doses 8 to 128 mg/kg): sans modifier le ptôsis
hypothermie réserpinique (souris [10]; [20]): antagonise l'hypothermie réserpinique
signes de stimulation cholinergique périphérique dûs à l'oxotrémorine (souris [11]; all doses used): ne modifie pratiquement pas les signes de stimulation cholinergique périphérique dûs à l'oxotrémorine
intensité des tremblements dus à l'oxotrémorine (souris [11]; doses de 32 mg/kg et 128 mg/kg): diminue faiblement l'intensité des tremblements dus à l'oxotrémorine
hypothermie induite par l'oxotrémorine (souris [11]; [20]): s'oppose à l'hypothermie induite par l'oxotrémorine
effets convulsivants de l'électrochoc (souris [12]; [21]): ne modifie pratiquement pas les effets convulsivants
incapacité motrice (traction) (souris [12]; [21]): ne provoque pas d'incapacité motrice majeure
nombre de passages punis (test des quatre plaques) (souris [12]; [21]): n'entraîne pas d'augmentation nette du nombre de passages punis
effets létaux de l'électrochoc (souris [12]; souris, I.P., dose de 128 mg/kg): aggrave, à la dose de 128 mg/kg, les effets létaux de l'électrochoc
activité motrice spontanée (souris [13]): augmente nettement l'activité motrice spontanée de la souris
nombre de combats (souris [14]): ne modifie pratiquement pas le nombre de combats
reprise d'activité motrice chez la souris habituée à son enceinte (souris [15]): entraîne une reprise nette d'activité motrice chez la souris habituée à son enceinte
délai d'apparition des convulsions et de la mort consécutives à une anoxie asphyxique (souris [16]): diminue très modérément le délai d'apparition des convulsions et de la mort
durée du sommeil barbiturique (souris [17]): diminue nettement la durée du sommeil barbiturique
durée de l'immobilité de la souris placée en immersion forcée (souris [18]): diminue très modérément la durée de l'immobilité de la souris placée en immersion forcée
traitement des dépressions chez l'homme (l'homme; administration orale, gélules ou comprimés 25 mg ou 50 mg, 1 à 2 prises par jour, deux à trois semaines): bons résultats
propriétés antidépressives chez les personnes agées (l'homme; clinical, oral): se manifestaient de façon très bénéfique chez les personnes agées
récupération motrice après anoxie hypobare aigue (souris [19]): semble entraîner une amélioration très modérée de la récupération motrice
